Data taken from US20040166160A1, “Methods and dosage forms with modified viscosity layers” (priority 2003, published 2004).
Counter-ions that a name gives are not always drawn.

Key:
[1] = cited from earlier work
[2] = FIG. 6
Source text: FIG. 6 illustrates blood plasma concentrations at various times achieved through various means of delivery. This figure illustrates the time necessary to achieve a particular blood plasma concentration.

[3] = in vivo; cited from earlier work
[4] = in vivo; cited from earlier work; remark: listed apart in the source

CN(C)CCC=C1c2ccccc2C=Cc2ccccc21 [Cyclobenzaprine hydrochloride, cyclobenzaprine hydrochloride]
solubility in alcohol ([1]; alcohol): freely soluble
solubility in hydrocarbon solvents ([1]; hydrocarbon solvents): insoluble
solubility in isopropanol ([1]; isopropanol): sparingly soluble
solubility in water ([1]; water): freely soluble

CN(C)CCC=C1c2ccccc2C=Cc2ccccc21 [cyclobenzaprine]
colonic absorption [2]: colonic absorption
half-life [3]: 24 to 72 h
reported side effects [4]: sedation and dry mouth
